According to patent publication EP4700027A1, “CRYSTALLINE FORM OF NITROGEN-CONTAINING TETRACYCLIC COMPOUND AND PREPARATION METHOD THEREFOR” (Jiangsu Hengrui Pharmaceuticals Co., Ltd., priority 2023, dated 2024):

Legend:
[1] = Dynamic vapor sorption (DVS) hygroscopicity testing; format: physicochemical; details: for desorption process of the sample versus its adsorption process: humidity changing from 0% to 95% RH
Source text: According to the description of hygroscopicity characteristics and the definitions of hygroscopic weight gains in "General Rule 9103, Guidelines for Hygroscopicity Trials for Pharmaceuticals" in the Chinese Pharmacopoeia, Volume IV, 2015 Edition, • deliquescent: sufficient water is absorbed to form a liquid; • extremely hygroscopic: the hygroscopic weight gain is not less than 15%; • hygroscopic: the hygroscopic weight gain is less than 15% but not less than 2%; • slightly hygroscopic: the hygroscopic weight gain is less than 2% but not less than 0.2%; nonhygroscopic or practically nonhygroscopic: the hygroscopic weight gain is less than 0.2%.
DVS refers to dynamic vapor sorption: The analysis was performed using SMS DVS Advantage; at 25 °C, the humidity was changed as follows: 50%-95%-0%-95%-50%, in steps of 10% (5% for the last step) (specific humidity ranges are shown in corresponding patterns, and those listed here were used in most cases); the criterion was dm/dt being not greater than 0.002%.

[2] = Influencing factor stability study on crystal forms (light, high temperature, high humidity, 30 days); format: physicochemical
[3] = accelerated experimental conditions (70% RH)
[4] = normal storage conditions (25 °C and 60% RH)
[5] = Light exposure (4500 Lux), 7 days
[6] = Light exposure (4500 Lux), 14 days
[7] = Light exposure (4500 Lux), 30 days
[8] = Light exposure (4500 Lux), 5 days
[9] = Light exposure (4500 Lux), 10 days

C=CC(=O)N1CCN2C(=O)c3cc(F)c(-c4ccc(F)c5sc(N)c(C#N)c45)c4c(Cl)nn(c34)CC[C@H]2C1 [crystal form M]
about 0.55%: hygroscopic weight gain [1, 3]
Off-white solid: Color and state ([2]; 40 °C, 7 days) | Color and state ([2]; 40 °C, 14 days) | Color and state ([2]; 40 °C, 30 days) | Color and state ([2]; 60 °C, 7 days) | Color and state ([2]; 60 °C, 14 days) | Color and state ([2]; 60 °C, 30 days) | Color and state ([2]; 75% RH, 7 days) | Color and state ([2]; 75% RH, 14 days) | Color and state ([2]; 75% RH, 30 days) | Color and state ([2]; 92.5% RH, 7 days) | Color and state ([2]; 92.5% RH, 14 days) | Color and state ([2]; 92.5% RH, 30 days) | Color and state ([2]; Initial, 0 days) | Color and state [2, 5] | Color and state [2, 6] | Color and state [2, 7]
99.2%: Purity (%) ([2]; 75% RH, 7 days) | Purity (%) ([2]; 75% RH, 14 days) | Purity (%) ([2]; 75% RH, 30 days) | Purity (%) ([2]; 92.5% RH, 7 days) | Purity (%) ([2]; 92.5% RH, 14 days) | Purity (%) ([2]; 92.5% RH, 30 days) | Purity (%) ([2]; Initial, 0 days) | Purity (%) [2, 5] | Purity (%) [2, 6]
Crystal form M: Crystal form ([2]; Initial, 0 days)
substantially overlapped: desorption process of the sample versus its adsorption process [1]
99.0%: Purity (%) ([2]; 60 °C, 30 days) | Purity (%) [2, 7]
about 0.48%: hygroscopic weight gain [1, 4]
about 0.73%: hygroscopic weight gain ([1]; extreme conditions (90% RH))
99.1%: Purity (%) ([2]; 40 °C, 7 days) | Purity (%) ([2]; 40 °C, 14 days) | Purity (%) ([2]; 60 °C, 7 days) | Purity (%) ([2]; 60 °C, 14 days)
Did not change: Crystal form ([2]; 40 °C, 7 days) | Crystal form ([2]; 40 °C, 14 days) | Crystal form ([2]; 40 °C, 30 days) | Crystal form ([2]; 60 °C, 7 days) | Crystal form ([2]; 60 °C, 14 days) | Crystal form ([2]; 60 °C, 30 days) | Crystal form ([2]; 75% RH, 7 days) | Crystal form ([2]; 75% RH, 14 days) | Crystal form ([2]; 75% RH, 30 days) | Crystal form ([2]; 92.5% RH, 7 days) | Crystal form ([2]; 92.5% RH, 14 days) | Crystal form ([2]; 92.5% RH, 30 days) | Crystal form [2, 5] | Crystal form [2, 6] | Crystal form [2, 7]
did not change: crystal form re-identified after DVS testing [1]
98.9%: Purity (%) ([2]; 40 °C, 30 days)

C=CC(=O)N1CCN2C(=O)c3cc(F)c(-c4ccc(F)c5sc(N)c(C#N)c45)c4c(Cl)nn(c34)CC[C@H]2C1 [crystal form G]
about 1.60%: hygroscopic weight gain ([1]; extreme conditions (90% RH))
97.8%: Purity (%) ([2]; 40 °C, 14 days)
97.7%: Purity (%) ([2]; 40 °C, 30 days)
98.5%: Purity (%) ([2]; 75% RH, 7 days) | Purity (%) ([2]; 75% RH, 14 days) | Purity (%) ([2]; 75% RH, 30 days) | Purity (%) ([2]; 92.5% RH, 7 days) | Purity (%) ([2]; 92.5% RH, 14 days) | Purity (%) ([2]; 92.5% RH, 30 days) | Purity (%) ([2]; Initial, 0 days) | Purity (%) [2, 5]
98.4%: Purity (%) [2, 6]
98.1%: Purity (%) ([2]; 60 °C, 14 days) | Purity (%) ([2]; 60 °C, 30 days)
substantially overlapped: desorption process of the sample versus its adsorption process [1]
did not change: crystal form re-identified after DVS testing [1]
about 1.21%: hygroscopic weight gain [1, 3]
Did not change: Crystal form ([2]; 40 °C, 7 days) | Crystal form ([2]; 40 °C, 14 days) | Crystal form ([2]; 40 °C, 30 days) | Crystal form ([2]; 60 °C, 7 days) | Crystal form ([2]; 60 °C, 14 days) | Crystal form ([2]; 60 °C, 30 days) | Crystal form ([2]; 75% RH, 7 days) | Crystal form ([2]; 75% RH, 14 days) | Crystal form ([2]; 75% RH, 30 days) | Crystal form ([2]; 92.5% RH, 7 days) | Crystal form ([2]; 92.5% RH, 14 days) | Crystal form ([2]; 92.5% RH, 30 days) | Crystal form [2, 5] | Crystal form [2, 6] | Crystal form [2, 7]
Crystal form G: Crystal form ([2]; Initial, 0 days)
Off-white solid: Color and state ([2]; 40 °C, 7 days) | Color and state ([2]; 40 °C, 14 days) | Color and state ([2]; 40 °C, 30 days) | Color and state ([2]; 60 °C, 7 days) | Color and state ([2]; 60 °C, 14 days) | Color and state ([2]; 60 °C, 30 days) | Color and state ([2]; 75% RH, 7 days) | Color and state ([2]; 75% RH, 14 days) | Color and state ([2]; 75% RH, 30 days) | Color and state ([2]; 92.5% RH, 7 days) | Color and state ([2]; 92.5% RH, 14 days) | Color and state ([2]; 92.5% RH, 30 days) | Color and state ([2]; Initial, 0 days) | Color and state [2, 5] | Color and state [2, 6] | Color and state [2, 7]
98.2%: Purity (%) ([2]; 40 °C, 7 days)
98.3%: Purity (%) ([2]; 60 °C, 7 days) | Purity (%) [2, 7]
about 1.04%: hygroscopic weight gain [1, 4]

C=CC(=O)N1CCN2C(=O)c3cc(F)c(-c4ccc(F)c5sc(N)c(C#N)c45)c4c(Cl)nn(c34)CC[C@H]2C1 [crystal form F]
97.5%: Purity (%) ([2]; 40 °C, 10 days)
did not change: crystal form re-identified after DVS testing [1]
97.9%: Purity (%) ([2]; 75% RH, 5 days) | Purity (%) ([2]; 75% RH, 10 days) | Purity (%) ([2]; 75% RH, 30 days) | Purity (%) ([2]; 92.5% RH, 5 days) | Purity (%) ([2]; 92.5% RH, 10 days) | Purity (%) ([2]; 92.5% RH, 30 days) | Purity (%) ([2]; Initial, 0 days)
97.8%: Purity (%) ([2]; 40 °C, 5 days) | Purity (%) ([2]; 60 °C, 5 days) | Purity (%) [2, 8] | Purity (%) [2, 9]
about 6.44%: hygroscopic weight gain [1, 3]
Did not change: Crystal form ([2]; 40 °C, 5 days) | Crystal form ([2]; 40 °C, 10 days) | Crystal form ([2]; 40 °C, 30 days) | Crystal form ([2]; 60 °C, 5 days) | Crystal form ([2]; 60 °C, 10 days) | Crystal form ([2]; 60 °C, 30 days) | Crystal form ([2]; 75% RH, 5 days) | Crystal form ([2]; 75% RH, 10 days) | Crystal form ([2]; 75% RH, 30 days) | Crystal form ([2]; 92.5% RH, 5 days) | Crystal form ([2]; 92.5% RH, 10 days) | Crystal form ([2]; 92.5% RH, 30 days) | Crystal form [2, 8] | Crystal form [2, 9] | Crystal form [2, 7]
about 6.35%: hygroscopic weight gain [1, 4]
96.7%: Purity (%) ([2]; 40 °C, 30 days)
97.7%: Purity (%) ([2]; 60 °C, 10 days) | Purity (%) [2, 7]
about 6.65%: hygroscopic weight gain ([1]; extreme conditions (90% RH))
97.3%: Purity (%) ([2]; 60 °C, 30 days)
Off-white solid: Color and state ([2]; 40 °C, 5 days) | Color and state ([2]; 40 °C, 10 days) | Color and state ([2]; 40 °C, 30 days) | Color and state ([2]; 60 °C, 5 days) | Color and state ([2]; 60 °C, 10 days) | Color and state ([2]; 60 °C, 30 days) | Color and state ([2]; 75% RH, 5 days) | Color and state ([2]; 75% RH, 10 days) | Color and state ([2]; 75% RH, 30 days) | Color and state ([2]; 92.5% RH, 5 days) | Color and state ([2]; 92.5% RH, 10 days) | Color and state ([2]; 92.5% RH, 30 days) | Color and state ([2]; Initial, 0 days) | Color and state [2, 8] | Color and state [2, 9] | Color and state [2, 7]
did not overlap: desorption process of the sample versus its adsorption process [1]
Crystal form F: Crystal form ([2]; Initial, 0 days)
